Structures are written as SMILES. “And” between values parts separate entries of the source, which are not always exact repeats. Identical values can stand only once. The source made the active and inactive calls. How the calls were made is not given here. Starred links: 1 amine or outer side, 2 acyl side, 3 side chain; linkers in the order of their positions; H or OH if unused. Positions of bridges follow the written chain, without caps; N, C: chain ends. Non-standard residues stand in square brackets, D forms with d. Residues, ends and D or L forms follow the SMILES beside them. Chains are numbered I, II in the order given. Actinocin(9to1) = Cc1c2oc3c(C)ccc(C(=O)[*:1])c3nc-2c(C(=O)[*:2])c(N)c1=O; NMeV = CN[C@H](C(=O)O)C(C)C; Sar = CNCC(=O)O

As a reminder, the IC50 is the concentration that inhibits the measured activity by half.

The assay relates to C2C12 + WNT3A conditioned medium, alkaline phosphatase. Put plainly: alkaline phosphatase induction in C2C12 cells, dose response, cell-based, WNT3A-conditioned medium (AID 1117327).
For the molecule `O=c1c(-c2ccccc2)c1-c1ccccc1`, the IC50 is 3620 nM.
Consider `CC(C)C[C@H](NC(=O)[C@H](CCc1ccccc1)NC(=O)CN1CCOCC1)C(=O)N[C@@H](Cc1ccccc1)C(=O)N[C@@H](CC(C)C)C(=O)[C@@]1(C)CO1`, for which the IC50 was 15.2 nM.
In the case of `Cc1ccc([N+](=O)[O-])[c]2c1[O][Hg]2`, the IC50 was 155 nM.
With `Cc1cc(=O)c2c(O)c3c(O)cc(=O)c4c3c3c(cc(O)c1c23)C(C)(C)C=4O`, the IC50 was 2910 nM.
Regarding `CCCCCCCCCCCCCC[N+](C)(C)Cc1ccccc1`, the IC50 was > 20000 nM (inactive).
As for `CCC1=C[C@@H]2CN(C1)Cc1c([nH]c3ccccc13)[C@@](C(=O)OC)(c1cc3c(cc1OC)N(C)[C@H]1[C@@](O)(C(=O)OC)[C@H](OC(C)=O)[C@]4(CC)C=CCN5CC[C@]31[C@@H]54)C2`, the IC50 was 10.1 nM.
For `CCCSc1ccc2nc(NC(=O)OC)[nH]c2c1`, the IC50 was 12300 nM (inactive).
Consider `CC[C@@]1(O)C(=O)OCc2c1cc1n(c2=O)Cc2cc3c(CN(C)C)c(O)ccc3nc2-1`, for which the concentration for half-maximal inhibition (IC50) was 17.9 nM.
For `C=CC(=O)Nc1cc2c(Nc3ccc(F)c(Cl)c3)ncnc2cc1OCCCN1CCOCC1`, the IC50 is 9460 nM (inactive).
In the case of `[O-][n+]1ccccc1SSc1cccc[n+]1[O-]`, the half-maximal inhibitory concentration (IC50) is 131 nM.
Take `O[C@@H](c1cc(C(F)(F)F)nc2c(C(F)(F)F)cccc12)[C@H]1CCCCN1`: the IC50 is > 20000 nM (inactive).
Under `COC(=O)Nc1nc2ccc(C(=O)c3ccccc3)cc2[nH]1` stands 245 nM; under `COc1cc(C=C2CCC/C(=C\c3ccc(O)c(OC)c3)C2=O)ccc1O`, > 20000 nM (inactive).
To `O=C1OC2(c3cc(Br)c(O)cc3Oc3c2cc(Br)c(O)[c]3[Hg])c2ccccc21` (stereo not given) belongs > 20000 nM (inactive).
For `CCN(CC)CCNc1ccc(CO)c2sc3ccccc3c(=O)c12`, the half-maximal inhibitory concentration (IC50) is 2670 nM.
Under `CC[C@]1(O)C[C@@H]2CN(CCc3c([nH]c4ccccc34)[C@@](C(=O)OC)(c3cc4c(cc3OC)N(C)[C@H]3[C@@](O)(C(=O)OC)[C@H](OC(C)=O)[C@]5(CC)C=CCN6CC[C@]43[C@@H]65)C2)C1` stands > 20 µM (inactive) and 8.9 nM; under `CCCOc1ccc2nc(NC(=O)OC)[nH]c2c1`, 88.1 nM.
With `CCCCC1C(=O)N(c2ccccc2)N(c2ccc(O)cc2)C1=O` (stereo not given), the IC50 is 4920 nM.
As for `CC[C@@]1(O)C(=O)OCc2c1cc1n(c2=O)Cc2c-1nc1ccccc1c2/C=N/OC(C)(C)C`, the half-maximal inhibitory concentration (IC50) was 3.2 nM.
As to `CC(=O)Oc1ccc(C2(c3ccc(OC(C)=O)cc3)Oc3ccccc3NC2=O)cc1`, the IC50 was 14000 nM (inactive).
With `CN(C)CCCN1c2ccccc2Sc2ccc(C(F)(F)F)cc21`, the IC50 is > 20000 nM (inactive).
Take `COC(=O)[C@H]1[C@H]2C[C@@H]3c4[nH]c5cc(OC)ccc5c4CCN3C[C@H]2C[C@@H](OC(=O)/C=C/c2ccc(O)c(OC)c2)[C@@H]1OC`: the IC50 was 10400 nM (inactive).
As to `Oc1c(I)cc(Cl)c2cccnc12`, the IC50 was 5400 nM (inactive).
For `Nc1ccc2cc3ccc(N)cc3nc2c1`, the IC50 is > 20000 nM (inactive).
On to `COc1cccc2c1C(=O)c1c(O)c3c(c(O)c1C2=O)C[C@@](O)(C(=O)CO)CC3OC1CC(N2CCOC(OC)C2)C(O)C(C)O1` (stereo not given in full), for which the IC50 is > 20000 nM (inactive).
As to `O=[N+]([O-])c1ccc(O)c2ncccc12`, the IC50 is 6360 nM (inactive).
`CCCCCCCCCCCCCCC[C@H](O)[C@@H](N)CO`: the IC50 was > 20000 nM (inactive).
Under `CC(C)(C)C(=O)OCOP(=O)(COCCn1cnc2c(N)ncnc21)OCOC(=O)C(C)(C)C` stands 387 nM; under `Clc1cc(Cl)c(OCC#CI)cc1Cl`, > 20000 nM (inactive).
Under `C[n+]1c2cc(N)ccc2cc2ccc(N)cc21` (tested in a mixture with another compound) stands 1600 nM; under `COC(=O)Nc1nc2ccc(S(=O)c3ccccc3)cc2[nH]1` (stereo not given), 559 nM; under `Cc1ccccc1C(=O)Nc1ccc(C(=O)N2CCCC(N(C)C)c3ccccc32)cc1` (stereo not given), 9980 nM (inactive).
With `CCCCCCCCCCCC(=O)[O][Sn]([CH2]CCC)([CH2]CCC)[O]C(=O)CCCCCCCCCCC`, the IC50 is > 20000 nM (inactive).
`Oc1c(Cl)cc(Cl)cc1Sc1cc(Cl)cc(Cl)c1O`: the IC50 is > 20000 nM (inactive).
For `CN(Cc1cnc2nc(N)nc(N)c2n1)c1ccc(C(=O)N[C@@H](CCC(=O)O)C(=O)O)cc1`, the IC50 is 11.6 nM.
For `CCCCCCCCCCOCC(O)CN` (stereo not given), the IC50 is > 20000 nM (inactive).
On to `Cc1c2oc3c(C)ccc(C(=O)N[C@@H]4C(=O)N[C@H](C(C)C)C(=O)N5CCC[C@H]5C(=O)N(C)CC(=O)N(C)[C@@H](C(C)C)C(=O)O[C@@H]4C)c3nc-2c(C(=O)N[C@@H]2C(=O)N[C@H](C(C)C)C(=O)N3CCC[C@H]3C(=O)N(C)CC(=O)N(C)[C@@H](C(C)C)C(=O)O[C@@H]2C)c(N)c1=O` (I: T[dV]P[Sar][NMeV] / II: T[dV]P[Sar][NMeV]; ester I:1-I:C, II:1-II:C; linker I:N-II:N via Actinocin(9to1)), for which the half-inhibitory concentration (IC50) was 1.5 nM.
For `CC(=O)[C@]1(O)Cc2c(O)c3c(c(O)c2[C@@H](O[C@H]2C[C@H](N)[C@H](O)[C@H](C)O2)C1)C(=O)c1ccccc1C3=O`, the half-maximal inhibitory concentration (IC50) was 504 nM.
Take `COc1cccc2c1C(=O)c1c(O)c3c(c(O)c1C2=O)C[C@@](O)(C(=O)CO)C[C@@H]3O[C@H]1C[C@H](N)[C@H](O[C@@H]2CCCCO2)[C@H](C)O1`: the IC50 was 3950 nM.
To `Cc1nc2ccc(CN(C)c3ccc(C(=O)N[C@@H](CCC(=O)O)C(=O)O)s3)cc2c(=O)[nH]1` belongs 4.2 nM.
As to `Cc1cc(O)c2ccccc2c1O`, the IC50 was 1750 nM.
As to `COC(=O)Nc1nc2ccc(Sc3ccccc3)cc2[nH]1`, the IC50 is 438 nM.
Regarding `Cc1cc(C2CCCCC2)n(O)c(=O)c1`, the IC50 is 1050 nM.
Turning to `CN1C[C@H](CNC(=O)OCc2ccccc2)C[C@@H]2c3cccc4c3c(cn4C)C[C@H]21`, the IC50 was > 20000 nM (inactive).
As to `O=[N+]([O-])C(Br)(CO)CO`, the IC50 is > 20000 nM (inactive).
On to `COC(=O)Nc1nc2ccc(C(=O)C3CC3)cc2[nH]1`, for which the IC50 is 684 nM.
In the case of `CN(C)c1ccc(C(=C2C=CC(=[N+](C)C)C=C2)c2ccccc2)cc1`, the half-inhibitory concentration (IC50) was 363 nM.
With `O=C1C(I)=CC(=C(c2cc(I)c(O)c(I)c2)c2ccccc2C(=O)O)C=C1I`, the IC50 is > 20000 nM (inactive).
Take `OCCN1CCN(CCCN2c3ccccc3Sc3ccc(Cl)cc32)CC1`: the IC50 is > 20000 nM (inactive).
To `CN1CC[C@H](c2c(O)cc(O)c3c(=O)cc(-c4ccccc4Cl)oc23)[C@H](O)C1` belongs 461 nM; to `CCCCCCCCCCCCNCCNCCNCC(=O)O`, > 20000 nM (inactive); to `CSc1ccc2c(c1)C(N1CCN(C)CC1)Cc1ccccc1S2` (stereo not given), > 20000 nM (inactive).
Turning to `Cc1cc2c(C(C)C)c(O)c(O)c(C=O)c2c(O)c1-c1c(C)cc2c(C(C)C)c(O)c(O)c(C=O)c2c1O`, the IC50 was > 20000 nM (inactive).
`COC(=O)c1nc(Cl)c(Cl)nc1N`: the half-inhibitory concentration (IC50) was 157 nM.
As to `O=C(Nc1ccc([N+](=O)[O-])cc1Cl)c1cc(Cl)ccc1O`, the IC50 was > 20000 nM (inactive).
To `CC[C@@H]([C@H](C)O)n1ncn(-c2ccc(N3CCN(c4ccc(OC[C@@H]5CO[C@@](Cn6cncn6)(c6ccc(F)cc6F)C5)cc4)CC3)cc2)c1=O` belongs 1630 nM; to `COCc1c(C(C)C)nc(C(C)C)c(/C=C/[C@@H](O)C[C@@H](O)CC(=O)O)c1-c1ccc(F)cc1`, > 20000 nM (inactive).
As for `Cc1nc(Nc2ncc(C(=O)Nc3c(C)cccc3Cl)s2)cc(N2CCN(CCO)CC2)n1`, the IC50 is 6.7 nM.
With `CCCCc1ccc2nc(NC(=O)OC)[nH]c2c1`, the 50% inhibitory concentration (IC50) was 68.2 nM.
`COc1cccc2c1C(=O)c1c(O)c3c(c(O)c1C2=O)C[C@@](O)(C(C)=O)C[C@@H]3O[C@H]1C[C@H](N)[C@H](O)[C@H](C)O1`: the concentration for half-maximal inhibition (IC50) is 6.1 nM.
`CCCCCCCCCCCCCC[N+](C)(C)C`: the IC50 is > 20000 nM (inactive).
`COC(=O)Nc1nc2ccc(C(=O)c3cccs3)cc2[nH]1`: the half-maximal inhibitory concentration (IC50) was 43.4 nM.
Regarding `CCCN(CCC)C(=O)C(CCC(=O)OCCCN1CCN(CCOC(=O)Cc2c(C)n(C(=O)c3ccc(Cl)cc3)c3ccc(OC)cc23)CC1)NC(=O)c1ccccc1` (stereo not given), the IC50 was 13200 nM (inactive).
`NC(=NCCCCCCN=C(N)/N=C(\N)Nc1ccc(Cl)cc1)/N=C(\N)Nc1ccc(Cl)cc1`: the IC50 is > 20000 nM (inactive).
As for `Cc1cc(CC(C)CC(C)(C)C)n(O)c(=O)c1` (stereo not given), the IC50 was > 20000 nM (inactive).
In the case of `c1ccc2c(c1)Sc1ccccc1N2CC1CN2CCC1CC2` (stereo not given), the IC50 was > 20000 nM (inactive).
As for `COc1cc([C@@H]2c3cc4c(cc3[C@@H](O[C@@H]3O[C@@H]5CO[C@@H](C)O[C@@H]5[C@H](O)[C@@H]3O)[C@H]3COC(=O)[C@H]23)OCO4)cc(OC)c1O`, the IC50 is > 20000 nM (inactive).
To `COc1cc(NCc2ccc3nc(N)nc(N)c3c2C)cc(OC)c1OC` belongs > 20000 nM (inactive).
Turning to `C[C@@]12C(=O)OC(=O)[C@]1(C)C1CCC2O1`, the half-maximal inhibitory concentration (IC50) was 1490 nM.
In the case of `Cc1nc(N)nc(N)c1-c1ccc(Cl)c(Cl)c1`, the IC50 is 29.9 nM.
For the molecule `CCc1nc(N)nc(N)c1-c1ccc(Cl)cc1`, the IC50 is 67.7 nM.
Take `O=C1c2c(O)ccc(O)c2C(=O)c2c(NCCNCCO)ccc(NCCNCCO)c21`: the IC50 is 1510 nM.
Take `NC(N)=NN=C(/C=C/c1ccc([N+](=O)[O-])o1)/C=C/c1ccc([N+](=O)[O-])o1`: the IC50 is 372 nM.
In the case of `C=C(C)[C@H]1Cc2c(ccc3c2O[C@@H]2COc4cc(OC)c(OC)cc4[C@@H]2C3=O)O1`, the IC50 is 254 nM.
Turning to `O=C(CCl)c1ccc(Cl)cc1Cl`, the IC50 is > 20000 nM (inactive).
For `O=C1C2CC=CCC2C(=O)N1SC(Cl)(Cl)Cl` (stereo not given), the concentration for half-maximal inhibition (IC50) is 511 nM.
For the molecule `C#C[C@]1(O)CC[C@H]2[C@@H]3CCc4cc(OC5CCCC5)ccc4[C@H]3CC[C@@]21C`, the IC50 was > 20000 nM (inactive).
With `CCCCCCNC(=O)n1cc(F)c(=O)[nH]c1=O`, the IC50 is 5550 nM (inactive).
`CN(C)C(=S)SSC(=S)N(C)C`: the IC50 was > 20000 nM (inactive).
Turning to `COc1cc([C@@H]2c3cc4c(cc3[C@H](O)[C@H]3COC(=O)[C@H]23)OCO4)cc(OC)c1OC`, the IC50 is 9.1 nM.

For the origin of these results see PubChem BioAssay AID1117327 (Cheminformatics & Chemogenomics Research Group (CCRG), …, 2015).
